Experimental data reported in US20240174684A1, “INHIBITORS OF cGAS ACTIVITY AS THERAPEUTIC AGENTS” (BELLBROOK LABS, LLC, priority 2021, published 2024).
Where two headings read alike, the source gives them in different places.

Columns and labels:
[1] = target: cGAS (Homo sapiens, UniProt Q8N884); assay: Transcreener cGAS enzymatic assay (FP); assay type: biochemical
Method: Structural, biochemical and biophysical analysis and selectivity profiling: Potency and MOA studies, including Mn^2+ sensitivity, were performed using the Transcreener cGAS enzymatic assay, which is manufactured at BellBrook Labs (Fitchburg, Wisconsin, USA). This homogenous cGAS enzymatic assay was developed with fluorescence polarization (FP) and time-resolved Forster resonance energy transfer (TR-FRET) readouts, as described in International Patent Publication WO 2020/142729, incorporated by reference herein in its entirety. Plates are read on a PHERAstar FSX multimode reader (BMG). The compounds of the disclosure were tested for inhibition of cGAS ([…]) using this cGAS enzymatic assay under standard conditions (100 μM ATP and GTP, 62.5 nM bp ISD, 60 minute reactions), high ATP and GTP (1 mM) to mimic physiological conditions, in the presence of 200 μM MnCl2, and with mouse cGAS under standard conditions.
The IC50 values for FP under standard and under physiological conditions were determined for several exemplary compounds of the invention. The relative activities for FP Standard IC50 are shown in Table 2 below, where A represents <50 nM; B represents 50-100 nM; C represents 100-200 nM; D represents 200 nM-1μM; and E represents 1-10 μM. For the relative activities for FP Physiological IC50, A′ represents <200 nM; B′ represents 200-500 nM; C′ represents 500 nM-1μM; D′ represents 1-5 μM; and E′ represents >5 μM.

[2] = test system: IFNβ production in THP-1 cells; assay: IFNβ ELISA in THP-1 cells; assay type: cell-based, human; conditions: Homo sapiens; THP-1 cells
Excerpt: Cellular assays: The human monocyte cell line THP-1 and human primary PBMCs were used to evaluate the cellular activity of compounds with good biochemical potency. These cells produce a robust cGAS/STING-dependent type I IFN response when stimulated with dsDNA and other pathogen-associated molecular patterns, which was detected using a standard ELISA for IFNβ (R&D Systems). The TBK1 inhibitor, BX-795, which acts downstream of cGAS/STING, was used as a probe.
CETSA was also used to confirm that the compounds are binding to cGAS in cells; THP-1 cells are used for this analysis. Compounds were tested in dose response mode by incubating with cells for 1.5 hours at 37° C., followed by pelleting and re-suspending in PBS, heating to 51.5° C. for 3 min and cooling to room temp. Cells were then lysed, debris, including denatured cGAS, was pelleted and the supernatant was analyzed for soluble cGAS by Western Blot using anti-cGAS primary Ab (Cell Signaling). Band intensity was analyzed using Image J software. Stimulation with cGAMP directly activates STING, circumventing cGAS; this was used to determine if compounds had effects on downstream components of cGAS/STING signaling. The IFN-6 ELISA was used as the primary measure of cellular potency and selectivity (Table 3) and used the reporter gene assays for assessing off-target activity with other pattern recognition receptors.
The ICso values for IFNB ELISA stimulated with THP-1, PBMC, DNA, and cGAMP were determined for several exemplary compounds of the invention, and are provided in Table 3 where A represents <1 μM; B represents 1-2.5 μM; C represents 2.5-10 μM; D represents 10-20 μM; and E represents >20 μM.

[3] = test system: MDR1 (P-glycoprotein); assay: MDCK-MDR1 permeability A→B; assay type: in vitro ADME, Canine; conditions: dog; MDCK cells expressing human MDR1, A→B; read-out: MDCK-MDR Permeability A→B
Method: (§1) ADME studies: Compound A and the compounds of the disclosure were tested for aqueous solubility (KSOL), metabolic stability (human and mouse […]) and permeability (Caco-2 and/or MDR1-MDCK cells) to provide an initial indication of oral bioavailability.
(§2) The favorable physicochemical properties are reflected in promising results in in vitro ADME tests. […] Metabolic stability, which was routinely measured with mouse and human hepatocytes, is outstanding, with t, greater than 2 hours for all of the compounds of the disclosure in which it has been measured. Cell permeability was measured using MDCK cells expressing human MDR1 (P-glycoprotein) to assess passive permeability as well as active transport out of the cell. […] Numerous compounds in Table 1 meet these permeability criteria, which is consistent with their design for TPSA <140 Å^2 and increased lipophilicity.
(§3) The MDCK-MDR1 permeability A ->B is shown in Table 2 below, where A represents 5-10 cm/s×10^−6; B represents 1-5 cm/s×10^−6; and C represents <1 cm/ss×10^−6. The metabolic stability half time, in both mouse and human hepatocytes, is also shown in Table 2 below, where A′ represents 100-200 minutes; B′ represents 200-300 minutes; and C′ represents >300 minutes.

[4] = test system: MDCK cells expressing human MDR1 (P-glycoprotein); assay: MDCK-MDR1 permeability A→B; assay type: in vitro ADME, Canine
Method: as §1, §2, §3

[5] = high ATP and GTP (1 mM) to mimic physiological conditions, read-out: IC50 FP Physiological
[6] = standard conditions: 100 μM ATP and GTP, 62.5 nM bp ISD, 60 minute reactions, read-out: IC50 FP Standard

Chain of cGAS (Q8N884 whole entry): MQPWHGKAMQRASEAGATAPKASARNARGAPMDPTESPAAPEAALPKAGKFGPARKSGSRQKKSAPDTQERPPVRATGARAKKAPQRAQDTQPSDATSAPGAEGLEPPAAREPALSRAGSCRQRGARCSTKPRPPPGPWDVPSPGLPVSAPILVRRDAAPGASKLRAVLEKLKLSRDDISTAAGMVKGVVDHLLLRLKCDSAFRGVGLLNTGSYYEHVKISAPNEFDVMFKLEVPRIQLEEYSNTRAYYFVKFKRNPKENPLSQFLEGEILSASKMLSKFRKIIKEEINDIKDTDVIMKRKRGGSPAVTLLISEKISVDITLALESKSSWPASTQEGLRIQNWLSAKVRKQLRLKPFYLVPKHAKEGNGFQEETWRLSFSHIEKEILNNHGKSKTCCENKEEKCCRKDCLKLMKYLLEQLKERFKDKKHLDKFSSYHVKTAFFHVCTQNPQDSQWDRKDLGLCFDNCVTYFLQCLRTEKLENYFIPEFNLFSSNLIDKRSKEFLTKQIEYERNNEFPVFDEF

| SMILES | IC50 [1, 5] [nM] | IC50 [1, 6] [nM] | IC50 [2] [nM] | Papp A→B [3] [×10⁻⁶ cm/s] | MDCK-MDR Permeability A→B [4] |
| --- | --- | --- | --- | --- | --- |
| Cc1ccc(NC(=O)C[C@H]2C[C@@H](C(=O)O)N(c3nc(C)nc4c3oc3ccccc34)C2)cc1 [Compound 15, (2S,4R)-1-(2-methylbenzofuro[3,2-d]pyrimidin-4-yl)-4-(2-oxo-2-(p-tolylamino)ethyl)pyrrolidine-2-carboxylic acid] | 1000 to 5000 | 200 to 1000 | > 20000 | 1 to 5 | – |
| Cc1cccc(NC(=O)C[C@H]2C[C@@H](C(=O)O)N(c3nc(C)nc4c3oc3ccccc34)C2)c1 [Compound 16, (28.4R)-1-(2-methylbenzofuro[3,2-d]pyrimidin-4-yl)-4-(2-oxo-2-(m-tolylamino)ethyl)pyrrolidine-2-carboxylic acid] | 1000 to 5000 | 200 to 1000 | > 20000 | 1 to 5 | – |
| Cc1nc(N2C[C@@H](CC(=O)Nc3ccc(F)cc3)C[C@H]2C(=O)O)c2oc3ccccc3c2n1 [Compound 18, (2S,4R)-4-(2-((4-fluorophenyl)amino)-2-oxoethyl)-1-(2-methylbenzofuro[3,2-d]pyrimidin-4-yl)pyrrolidine-2-carboxylic acid] | 1000 to 5000 | 200 to 1000 | > 20000 | – | C (C represents <1 cm/ss×10^−6) |
| Cc1nc(N2C[C@@H](CC(=O)Nc3cccc(F)c3)C[C@H]2C(=O)O)c2oc3ccccc3c2n1 [Compound 19, (2S,4R)-4-(2-((3-fluorophenyl)amino)-2-oxoethyl)-1-(2-methylbenzofuro[3,2-d]pyrimidin-4-yl)pyrrolidine-2-carboxylic acid] | 1000 to 5000 | 200 to 1000 | 10000 to 20000 | 1 to 5 | – |
| Cc1nc(N2C[C@@H](CC(=O)Nc3ccccc3F)C[C@H]2C(=O)O)c2oc3ccccc3c2n1 [Compound 20, (2S,4R)-4-(2-((2-fluorophenyl)amino)-2-oxoethyl)-1-(2-methylbenzofuro[3,2-d]pyrimidin-4-yl)pyrrolidine-2-carboxylic acid] | > 5000 | 200 to 1000 | > 20000 | 1 to 5 | – |
| Cc1nc(N2C[C@@H](CC(=O)Nc3ccc(Cl)cc3)C[C@H]2C(=O)O)c2oc3ccccc3c2n1 [Compound 21, (28.4R)-4-(2-((4-chlorophenyl)amino)-2-oxoethyl)-1-(2-methylbenzofuro[3,2-d]pyrimidin-4-yl)pyrrolidine-2-carboxylic acid] | 1000 to 5000 | 100 to 200 | 10000 to 20000 | 1 to 5 | – |
| Cc1nc(N2C[C@@H](CC(=O)Nc3ccccc3Cl)C[C@H]2C(=O)O)c2oc3ccccc3c2n1 [Compound 23, (28.4R)-4-(2-((2-chlorophenyl)amino)-2-oxoethyl)-1-(2-methylbenzofuro[3,2-d]pyrimidin-4-yl)pyrrolidine-2-carboxylic acid] | > 5000 | 200 to 1000 | > 20000 | 1 to 5 | – |
| Cc1nc(N2C[C@@H](CC(=O)Nc3cccc(C(F)(F)F)c3)C[C@H]2C(=O)O)c2oc3ccccc3c2n1 [Compound 25, (2S,4R)-1-(2-methylbenzofuro[3,2-d]pyrimidin-4-yl)-4-(2-oxo-2-((3-(trifluoromethyl)phenyl)amino)ethyl)pyrrolidine-2-carboxylic acid] | > 5000 | 200 to 1000 | 10000 to 20000 | 1 to 5 | – |

Results, then the compound that gave them:

| IC50 [1, 5] [nM] | IC50 [1, 6] [nM] | IC50 [2] [nM] | Papp A→B [3] [×10⁻⁶ cm/s] | MDCK-MDR Permeability A→B [4] | SMILES |
| --- | --- | --- | --- | --- | --- |
| 1000 to 5000 | 200 to 1000 | > 20000 | – | C (C represents <1 cm/ss×10^−6) | Cc1nc(N2C[C@@H](CC(=O)Nc3cccc4[nH]ncc34)C[C@H]2C(=O)O)c2oc3ccccc3c2n1 [Compound 28, (28.4R)-4-(2-((1H-indazol-4-yl)amino)-2-oxoethyl)-1-(2-methylbenzofuro[3,2-d]pyrimidin-4-yl)pyrrolidine-2-carboxylic acid] |
| 500 to 1000 | 100 to 200 | > 20000 | – | C (C represents <1 cm/ss×10^−6) | Cc1nc(N2C[C@@H](CC(=O)Nc3ccc4nc[nH]c4c3)C[C@H]2C(=O)O)c2oc3ccccc3c2n1 [Compound 29, (2S,4R)-4-(2-((1H-benzo[d]imidazol-6-yl)amino)-2-oxoethyl)-1-(2-methylbenzofuro[3,2-d]pyrimidin-4-yl)pyrrolidine-2-carboxylic acid] |
| 1000 to 5000 | 100 to 200 | > 20000 | – | C (C represents <1 cm/ss×10^−6) | Cc1nc(N2C[C@@H](CC(=O)Nc3ccc4cn[nH]c4c3)C[C@H]2C(=O)O)c2oc3ccccc3c2n1 [Compound 30, (28.4R)-4-(2-((1H-indazol-6-yl)amino)-2-oxoethyl)-1-(2-methylbenzofuro[3,2-d]pyrimidin-4-yl)pyrrolidine-2-carboxylic acid] |
| 200 to 500 | < 50 | > 20000 | – | C (C represents <1 cm/ss×10^−6) | Cc1nc(N2C[C@@H](CC(=O)Nc3ccc(-c4cccnn4)cc3)C[C@H]2C(=O)O)c2oc3ccccc3c2n1 [Compound 44, (2S,4R)-1-(2-methylbenzofuro[3,2-d]pyrimidin-4-yl)-4-(2-oxo-2-((4-(pyridazin-3-yl)phenyl)amino)ethyl)pyrrolidine-2-carboxylic acid] |
| 200 to 500 | < 50 | < 1000 | 5 to 10 | – | COc1cccc(-c2ccc(NC(=O)C[C@H]3C[C@@H](C(=O)O)N(c4nc(C)nc5c4oc4ccccc45)C3)cc2)c1 [Compound 50, (2S,4R)-4-(2-((3′-methoxy-[1,1′-biphenyl]-4-yl)amino)-2-oxoethyl)-1-(2-methylbenzofuro[3,2-d]pyrimidin-4-yl)pyrrolidine-2-carboxylic acid] |
| 1000 to 5000 | 200 to 1000 | > 20000 | – | C (C represents <1 cm/ss×10^−6) | Cc1nc(N2C[C@@H](CC(=O)Nc3ccc(Cc4ccccn4)cc3)C[C@H]2C(=O)O)c2oc3ccccc3c2n1 [Compound 56, (2S,4R)-1-(2-methylbenzofuro[3,2-d]pyrimidin-4-yl)-4-(2-oxo-2-((4-(pyridin-2-ylmethyl)phenyl)amino)ethyl)pyrrolidine-2-carboxylic acid] |
| 1000 to 5000 | 100 to 200 | > 20000 | – | C (C represents <1 cm/ss×10^−6) | Cc1nc(N2C[C@@H](CC(=O)Nc3cccc(N4CCOCC4)c3)C[C@H]2C(=O)O)c2oc3ccccc3c2n1 [Compound 57, (2S,4R)-1-(2-methylbenzofuro[3,2-d]pyrimidin-4-yl)-4-(2-((3-morpholinophenyl)amino)-2-oxoethyl)pyrrolidine-2-carboxylic acid] |
| 1000 to 5000 | 200 to 1000 | > 20000 | – | C (C represents <1 cm/ss×10^−6) | Cc1nc(N2C[C@@H](CC(=O)Nc3cccc(N4CCC(O)CC4)c3)C[C@H]2C(=O)O)c2oc3ccccc3c2n1 [Compound 58, (2S,4R)-4-(2-((3-(4-hydroxypiperidin-1-yl)phenyl)amino)-2-oxoethyl)-1-(2-methylbenzofuro[3,2-d]pyrimidin-4-yl)pyrrolidine-2-carboxylic acid] |
